Data from US5554542A, “Immunoassay for isothiazolones” (Rohm and Haas Company, priority 1993, dated 1996).

How the values were obtained:
[1] = tested on: antibodies produced by cell culture 89-147EH9; experiment: CIEIA for detection of biocides, four inhibitors at several concentrations; format: binding, mouse; details: no inhibitor 515
Procedure: The supernatants from wells with growing colonies of hybridomas were screened using CIEIA. Ninety-six well polystyrene EIA ([…]) plates were coated with 100 μl of 651 conjugated to BSA (651-BSA) for at least two hours at room temperature or 16 hours at 4° C. Unbound material was washed from the wells with five washes of PBS-T. […] The wells then received 50 μl of supernatant from each cell culture, so that each supernatant was reacted with either buffer, 651 or 573 (inhibitors). […] The wells were incubated for 30-60 minutes at room temperature. They were then washed five times with PBS-T to remove unbound material and each well then received 100 μl of a 1 μg/ml solution of biotinylated horse anti-mouse IgG (Vector Laboratories, Burlingame, Calif.), and the assay continued as described for the ELISA, supra.

[2] = tested on: anti-651 antibody covalently linked to horseradish peroxidase; experiment: Colorometric determination of isothiazolones in wood with anti-651-HRP; format: binding; details: pressure treated Southern Yellow pine wafer, anti-651-HRP 500 ng/ml, ABTS, corrected for background; control wafer 0.002
Procedure: Southern Yellow pine, which had been pressure treated with a solution containing 4,5-dichloro-2-n-octyl-3-isothiazolone using commercial methods, was cut into wafers (0.5×2.5 cm). These wood wafers were soaked in a solution of 3% nonfat milk for 30 minutes. The wafers were then rinsed briefly with PBS-T, and then exposed to the anti-651 antibody, which is covalently linked to horseradish peroxidase at 500 ng/ml, for 15 minutes. The wafers were then washed twice for 30 minutes each in PBS-T buffer. The bound anti-651-HRP complex was visualized by placing the wafers in a vial containing HRP substrate (ABTS). The appearance of a […] color in the solution indicated the presence of 4,5-dichloro-2-n-octyl-3-isothiazolone. A 200 μl aliquot of the solution in the vial was taken and the absorbance determined at 405 nm. This was compared to a control wood wafer treated in an identical manner but containing no isothiazolone. The absorbance values were then corrected for background.

Row | A405 [2] | SMILES | 10 Minute Absorbances × 1000 ([1]; inhibitor concentration 0.08 ppm) | 10 Minute Absorbances × 1000 ([1]; inhibitor concentration 0.4 ppm) | 10 Minute Absorbances × 1000 ([1]; inhibitor concentration 2 ppm) | 10 Minute Absorbances × 1000 ([1]; inhibitor concentration 10 ppm) | 10 Minute Absorbances × 1000 ([1]; inhibitor concentration 50 ppm)
1 |  | CNC(=O)CC(=O)O [NMA, Nmethyl malonamic acid] | 429 | 519 | 496 | 518 | 490
2 | 0.165 | CCCCCCCCn1sc(Cl)c(Cl)c1=O [compound 287, 4,5-dichloro-2-n-octyl-3-isothiazolone] |  |  |  |  | 
3 |  | CCCCCCCCn1sccc1=O [compound 893, 2-n-octyl-3-isothiazolone] |  |  | 514 | 589 | 516
